Experimental data taken from PubChem BioAssay (NCI).
Values joined by “and” are separate entries in the source; they are usually repeats but may differ in a detail not shown here. Equal values may be shown once.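 Step 1: Grow cells in 96-well plates. Step 2: Expose to compound for 48 hours at 5 concentrations. Step 3: Interpolate endpoints linearly; if unreached, use highest concentration. At the GI50, growth is halved. TGI denotes the concentration required for complete inhibition of growth.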

Assays:
Experiment in all cases: NCI anticancer screen, dose series, 48 h
OVCAR-3 ovarian = system: OVCAR-3 ovarian
SR leukemia = system: SR leukemia
MALME-3M melanoma = system: MALME-3M melanoma
OVCAR-8 ovarian = system: OVCAR-8 ovarian
SN12C renal = system: SN12C renal
NCI-H522 lung = system: NCI-H522 lung
ACHN renal = system: ACHN renal
HT29 colon = system: HT29 colon
HCT-15 colon = system: HCT-15 colon
RPMI-8226 leukemia = system: RPMI-8226 leukemia

Structure (SMILES)	TGI (OVCAR-3 ovarian)	TGI (SR leukemia)	TGI (MALME-3M melanoma)	TGI (OVCAR-8 ovarian)	TGI (SN12C renal)	TGI (NCI-H522 lung)	TGI (ACHN renal)	TGI (HT29 colon)	TGI (HCT-15 colon)	TGI (RPMI-8226 leukemia)	GI50 (OVCAR-3 ovarian)	GI50 (SR leukemia)	GI50 (MALME-3M melanoma)	GI50 (OVCAR-8 ovarian)	GI50 (SN12C renal)	GI50 (NCI-H522 lung)	GI50 (ACHN renal)	GI50 (HT29 colon)	GI50 (HCT-15 colon)	GI50 (RPMI-8226 leukemia)
O=C(O)C1CC=CCC1C(=O)Nc1cccc(O)c1 (stereo not drawn)	> 100 µM	> 100 µM	> 100 µM	> 100 µM	> 100 µM	> 100 µM	> 100 µM	> 100 µM	> 100 µM	> 100 µM										
CO[C@@H]1CCN(c2nccc(Nc3cc4c(C(C)C)ccc(N5CC(CS(C)(=O)=O)[C@H]5C)c4cn3)n2)C[C@@H]1F (stereo partly drawn)	> 100 µM	32.7 µM	15.6 µM	> 100 µM	> 100 µM	8.25 µM	44.6 µM	12.1 µM	14.4 µM	7.33 µM	3.07 µM	2.87 µM	3.76 µM	2.83 µM	3.35 µM	1.69 µM	1.33 µM	3.1 µM	2.84 µM	2.14 µM
CCN(CC)c1c(-c2ccccc2)n[nH]c1C(=O)OC	36.8 µM	80.1 µM	41.5 µM	44.9 µM	40.3 µM	50.7 µM	74.3 µM	33.5 µM	40.9 µM	38.4 µM	15.1 µM	17.2 µM	15.9 µM	15.5 µM	24.4 µM	18.5 µM	28.8 µM	19.4 µM	19 µM	14.6 µM
Nc1ccccc1C#C/C=C\C#CC#C/C=C\C#Cc1ccccc1N	14 µM	7 µM	67.1 µM	29.5 µM	16.4 µM	16 µM	40.4 µM	32.7 µM	24.2 µM	5.82 µM	2.78 µM	1.42 µM	11.7 µM	4.8 µM	3.05 µM	3.93 µM	5.38 µM	8.36 µM	3.74 µM	0.515 µM
CN(C)CCC(/C=C/c1ccccc1)=N\Nc1ccc(Cl)c(Cl)c1	16.8 µM	5.34 µM	32.8 µM	7.8 µM	13.7 µM	4.41 µM	4.49 µM	5.01 µM	12.9 µM	9.53 µM										
O=[N+]([O-])c1cccc(-c2nc(-c3ccc(Cl)cc3Cl)cn2-c2ccccc2)c1	0.945 µM	> 33.3 µM	2.11 µM	2.64 µM	> 7.91 µM	> 20.2 µM	5.42 µM	5.42 µM	> 23.2 µM	1.79 µM	0.458 µM	1.24 µM	0.704 µM	0.947 µM	1.19 µM	3.25 µM	1.3 µM	1.25 µM	1.13 µM	0.00546 µM
COCCOCCOCc1n(Cc2ccc3ccccc3c2)c2ccccc2[n+]1Cc1ccc2ccccc2c1	1.48 µM	1.6 µM	1.38 µM	1.74 µM	1.46 µM	1.3 µM	5.37 µM	1.34 µM	3.36 µM	1.15 µM	0.322 µM	0.36 µM	0.351 µM	0.421 µM	0.372 µM	0.303 µM	2.16 µM	0.321 µM	1.69 µM	0.117 µM
CS(=O)(=O)Nc1cc(-c2ccc3ncnc(Nc4ccc(F)c(Cl)c4)c3c2)cnc1Cl	1.92 µM and 5.33 µM	5.56 µM and 43 µM	1.13 µM and 1.56 µM	12.9 µM and > 40.4 µM	12.7 µM	3.9 µM and 9.8 µM	13.8 µM and > 42.5 µM	6.82 µM and 7.81 µM	11.2 µM and 11.6 µM	2.67 µM and 3.4 µM	0.36 µM and 0.616 µM	0.577 µM and 2.2 µM	0.191 µM and 0.179 µM	1.68 µM and 1.72 µM	0.389 µM	0.4 µM and 0.815 µM	0.404 µM and 0.575 µM	0.369 µM and 0.503 µM	0.559 µM and 0.542 µM	0.444 µM and 0.598 µM
Cc1cccc(C)c1NC(=O)CCc1nnc2s/c(=C\c3ccc(N(C)C)cc3)c(=O)n12	> 100 µM	> 100 µM	> 100 µM	> 100 µM	> 100 µM	> 100 µM	> 100 µM	> 100 µM	> 100 µM	> 100 µM										
CC(C)(C)OC(=O)NCCCCn1c2c(c3ccccc3c1=O)C(=O)c1ccccc1-2	23.3 µM	42.4 µM	80.6 µM	30.3 µM	69.3 µM	> 100 µM	50.2 µM	> 100 µM	> 100 µM	> 100 µM	5.42 µM	3.59 µM	27.1 µM	8.75 µM	23.1 µM	27 µM	15.7 µM	32.4 µM	35.3 µM	4.42 µM
CN1CCN(c2ccc(OC(F)(F)F)c(Nc3ncc4c(n3)-c3c(c(C(N)=O)nn3CCO)CC4)c2)CC1	18.2 µM and > 10 µM	18.6 µM and > 3.19 µM	29.8 µM and > 10 µM	61.5 µM and > 4.59 µM	20.7 µM and > 10 µM		20.2 µM and > 10 µM	> 82.9 µM	> 100 µM	35 µM and > 10 µM	0.037 µM and 0.0424 µM	0.0231 µM and 0.03 µM		0.0506 µM and 0.0624 µM	1.13 µM and 0.721 µM	0.03 µM and 0.0265 µM	0.43 µM and 0.814 µM	0.0349 µM and 0.0348 µM	0.213 µM and 0.266 µM	0.774 µM and 0.324 µM
O=C1/C(=C/c2ccc3c(c2)OCCO3)CCC/C1=C\c1ccc2c(c1)OCCO2	44.6 µM	85.8 µM	> 100 µM	30.6 µM	54.9 µM	92.3 µM	> 100 µM	52 µM	> 100 µM	45.8 µM										
Cc1cc(C(=O)/C=C/c2ccc[nH]2)ccc1-n1ccc(C(F)(F)F)n1	6.78 µM	80.1 µM	54.7 µM	> 100 µM	> 100 µM	65.6 µM	> 100 µM	> 100 µM	> 100 µM	3.33 µM	2.29 µM	3.72 µM	7.25 µM	6.27 µM	6.44 µM	3.68 µM	21.3 µM	14.4 µM	11.1 µM	0.592 µM
O=c1c2cc(Br)cc(Br)c2nc(CCCl)n1-c1ccc(O)c([N+](=O)[O-])c1	33.7 µM	65.4 µM	36.4 µM	41.6 µM	31.8 µM	23.5 µM	33.9 µM	41.1 µM	38.1 µM	56.1 µM										
